Results published in PubChem BioAssay AID248 (DTP/NCI, 2004).
Where “and” joins values, the source holds several entries; their conditions need not be identical. Equal values may be shown once. Toxic doses and inconclusive results are not listed. Cut-off read from the data, not from the text of the source: active = T/C of 150% or more; inactive = T/C below 125%.

System: L1210 leukemia ip in BDF1 mice, survival T/C
Test: NCI In Vivo Anticancer Drug Screen. Data for tumor model L1210 Leukemia (intraperitoneal) in B6D2F1 (BDF1) mice
Details: endpoint: mean survival time, higher = longer survival
Method in brief: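 Transplantable tumor model; survival measured in treated vs vehicle control mice. Value = treated/control.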

[1] = dose: 50.0 mg/kg/injection, schedule: Q04DX002 (ip), vehicle: Klucel (hydroxypropylcellulose) (HPC)
[2] = dose: 100.0 mg/kg/injection, schedule: Q01DX009 (ip), vehicle: Klucel (hydroxypropylcellulose) (HPC)
[3] = dose: 100.0 mg/kg/injection, schedule: Q04DX002 (ip), vehicle: Klucel (hydroxypropylcellulose) (HPC)
[4] = dose: 200.0 mg/kg/injection, schedule: Q01DX009 (ip), vehicle: Klucel (hydroxypropylcellulose) (HPC)
[5] = dose: 200.0 mg/kg/injection, schedule: Q04DX002 (ip), vehicle: Klucel (hydroxypropylcellulose) (HPC)
[6] = dose: 400.0 mg/kg/injection, schedule: Q01DX009 (ip), vehicle: Klucel (hydroxypropylcellulose) (HPC)
[7] = dose: 100.0 mg/kg/injection, schedule: Q01DX009 (ip), vehicle: saline
[8] = dose: 100.0 mg/kg/injection, schedule: Q04DX003 (ip), vehicle: saline
[9] = dose: 200.0 mg/kg/injection, schedule: Q04DX003 (ip), vehicle: saline
[10] = dose: 100.0 mg/kg/injection, schedule: Q04DX002 (ip), vehicle: saline with Tween-80
[11] = dose: 400.0 mg/kg/injection, schedule: Q04DX002 (ip), vehicle: Klucel (hydroxypropylcellulose) (HPC)
[12] = dose: 100.0 mg/kg/injection, schedule: Q04DX003 (ip), vehicle: Klucel (hydroxypropylcellulose) (HPC)
[13] = dose: 200.0 mg/kg/injection, schedule: Q04DX003 (ip), vehicle: Klucel (hydroxypropylcellulose) (HPC)
[14] = dose: 400.0 mg/kg/injection, schedule: Q04DX003 (ip), vehicle: Klucel (hydroxypropylcellulose) (HPC)
[15] = dose: 100.0 mg/kg/injection, schedule: Q04DX003 (ip), vehicle: saline with Tween-80
[16] = dose: 200.0 mg/kg/injection, schedule: Q04DX003 (ip), vehicle: saline with Tween-80
[17] = dose: 400.0 mg/kg/injection, schedule: Q04DX003 (ip), vehicle: saline with Tween-80

Measured: T/C

Cc1ccc(N=C2N(c3ccccc3)N(c3ccccc3)C2(c2ccccc2)c2ccccc2)cc1
inactive: dose: 100.0 mg/kg/injection, schedule: Q01DX001 (ip), vehicle: carboxymethylcellulose (CMC) 92 % of control | dose: 200.0 mg/kg/injection, schedule: Q01DX001 (ip), vehicle: carboxymethylcellulose (CMC) 88 % of control | dose: 400.0 mg/kg/injection, schedule: Q01DX001 (ip), vehicle: carboxymethylcellulose (CMC) 88 % of control

O=S1(=O)Cc2ccccc2-c2ccccc2C1Cl (stereo not drawn)
inactive: [1] 100 % of control | [2] 98 % of control | [3] 100 % of control | [4] 100 % of control | [5] 97 % of control | [6] 96 % of control

NCc1ccc(F)cc1
inactive: dose: 50.0 mg/kg/injection, schedule: Q01DX009 (ip), vehicle: saline 102 % of control | [7] 95 % of control | [8] 100 % of control | dose: 200.0 mg/kg/injection, schedule: Q01DX009 (ip), vehicle: saline 95 % of control | [9] 92 % of control

CC(C)C(C#Cc1ccccc1)N1CCCCC1 (stereo not drawn)
inactive: [10] 103 % of control | dose: 200.0 mg/kg/injection, schedule: Q04DX002 (ip), vehicle: saline with Tween-80 87 % of control | dose: 400.0 mg/kg/injection, schedule: Q04DX002 (ip), vehicle: saline with Tween-80 97 % of control

O=C(c1ccc(Cl)cc1)N1CCC(CCCc2ccccc2)CC1
inactive: [3] 96 % of control | [5] 99 % of control | [11] 96 % of control

c1cc[c]([Pb]([c]2ccccc2)([c]2ccccc2)[c]2ccccc2)cc1
inactive: [1] 103 % of control | [3] 103 % of control | [5] 113 % of control and 115 % of control | [11] 101 % of control

Cc1ccc2c(c1)NP(=O)(c1ccccc1)S2 (stereo not drawn)
inactive: dose: 25.0 mg/kg/injection, schedule: Q04DX002 (ip), vehicle: saline with Tween-80 89 % of control | dose: 50.0 mg/kg/injection, schedule: Q04DX002 (ip), vehicle: saline with Tween-80 92 % of control | [10] 102 % of control and 89 % of control

COC1=CC(C)(C)c2ccccc2C1=O
inactive: dose: 50.0 mg/kg/injection, schedule: Q01DX009 (ip), vehicle: saline sonified 97 % of control | dose: 100.0 mg/kg/injection, schedule: Q01DX009 (ip), vehicle: saline sonified 99 % of control | [12] 97 % of control | dose: 200.0 mg/kg/injection, schedule: Q01DX009 (ip), vehicle: saline sonified 97 % of control | [13] 115 % of control | [14] 97 % of control

Clc1ccc(Cl)nc1
inactive: [2] 103 % of control | [12] 98 % of control | [4] 93 % of control | [13] 98 % of control | [6] 103 % of control | [14] 88 % of control

Nc1cc(Cl)cc2c1-c1c(Cl)cc(Cl)cc1C2
inactive: [2] 102 % of control | [12] 96 % of control | [13] 104 % of control | [6] 102 % of control | [14] 104 % of control

COc1ccc(Cl)cc1NC(=O)c1ccco1
inactive: [2] 89 % of control | [4] 87 % of control | [6] 97 % of control

CCOc1ccn(C)c(=O)n1
inactive: dose: 50.0 mg/kg/injection, schedule: Q01DX001 (ip), vehicle: saline 90 % of control | dose: 100.0 mg/kg/injection, schedule: Q01DX001 (ip), vehicle: saline 95 % of control

O=C(O)COc1ccc(F)c(F)c1F
inactive: dose: 100.0 mg/kg/injection, schedule: Q04DX002 (ip), vehicle: other 107 % of control | dose: 200.0 mg/kg/injection, schedule: Q04DX002 (ip), vehicle: other 100 % of control | dose: 400.0 mg/kg/injection, schedule: Q04DX002 (ip), vehicle: other 91 % of control

O=C(O)CCCCc1ccccc1
inactive: dose: 100.0 mg/kg/injection, schedule: Q01DX009 (ip), vehicle: saline with Tween-80 96 % of control | [15] 100 % of control | dose: 200.0 mg/kg/injection, schedule: Q01DX009 (ip), vehicle: saline with Tween-80 100 % of control | [16] 91 % of control | dose: 400.0 mg/kg/injection, schedule: Q01DX009 (ip), vehicle: saline with Tween-80 92 % of control | [17] 94 % of control

[CH3][Sn]([CH3])([CH3])[Cl]
inactive: dose: 0.12 mg/kg/injection, schedule: Q04DX002 (ip), vehicle: saline 108 % of control | dose: 0.25 mg/kg/injection, schedule: Q04DX002 (ip), vehicle: saline 105 % of control | dose: 0.5 mg/kg/injection, schedule: Q04DX002 (ip), vehicle: saline 108 % of control

CC1=C(C)C2(C)C(C)(O)C(C)(O)C12C (stereo not drawn)
inactive: dose: 75.0 mg/kg/injection, schedule: Q01DX001 (ip), vehicle: acetone 97 % of control | dose: 75.0 mg/kg/injection, schedule: Q04DX003 (ip), vehicle: saline with Tween-80 87 % of control | dose: 150.0 mg/kg/injection, schedule: Q01DX001 (ip), vehicle: acetone 102 % of control | dose: 300.0 mg/kg/injection, schedule: Q01DX001 (ip), vehicle: acetone 102 % of control

COC1=CC2C3=C(C(NC=O)CCc4cc(O)c(OC)c(OC)c43)C2C1=O (stereo not drawn)
inactive: [15] 101 % of control | [16] 93 % of control | [17] 108 % of control

Cn1c(=O)c2c(ncn2CCSCC2=NS(=O)(=O)c3cc(S(N)(=O)=O)c(C(F)(F)F)cc3N2)n(C)c1=O
inactive: dose: 100.0 mg/kg/injection, schedule: Q04DX002 (ip), vehicle: saline 97 % of control | dose: 200.0 mg/kg/injection, schedule: Q04DX002 (ip), vehicle: saline 94 % of control | dose: 400.0 mg/kg/injection, schedule: Q04DX002 (ip), vehicle: saline 94 % of control

O=C(NCCCN1CC1)C(=O)NNc1ccccc1
inactive: [12] 102 % of control | [13] 93 % of control

Cc1nc2[nH]cnc(=S)c2[nH]1
inactive: dose: 100.0 mg/kg/injection, schedule: Q01DX001 (ip), vehicle: other 107 % of control | dose: 200.0 mg/kg/injection, schedule: Q01DX001 (ip), vehicle: other 103 % of control

Nc1nc(N)nc(-c2ccc(NC(=O)c3ccccc3[N+](=O)[O-])cc2)n1
inactive: dose: 50.0 mg/kg/injection, schedule: Q04DX003 (ip), vehicle: Klucel (hydroxypropylcellulose) (HPC) 100 % of control | dose: 100.0 mg/kg/injection, schedule: Q01DX001 (ip), vehicle: Klucel (hydroxypropylcellulose) (HPC) 97 % of control | [12] 106 % of control | dose: 200.0 mg/kg/injection, schedule: Q01DX001 (ip), vehicle: Klucel (hydroxypropylcellulose) (HPC) 95 % of control | [13] 103 % of control

N=C(N)SCCCN
inactive: [7] 108 % of control | [8] 101 % of control | [9] 100 % of control

Cc1cc(NC(=O)c2cccc(S(=O)(=O)F)c2)cc(C)c1OCc1nc(N)nc(N)c1-c1ccc(Cl)c(Cl)c1
inactive: dose: 100.0 mg/kg/injection, schedule: Q01DX001 (ip), vehicle: saline with Tween-80 97 % of control | dose: 200.0 mg/kg/injection, schedule: Q01DX001 (ip), vehicle: saline with Tween-80 88 % of control | dose: 400.0 mg/kg/injection, schedule: Q01DX001 (ip), vehicle: saline with Tween-80 101 % of control

Cc1cnc(/N=C(\N)N2CCOCC2)nc1-c1ccccc1O
inactive: [3] 88 % of control | [5] 88 % of control
